Laboratory results from the OPERA property sets (Mansouri et al. 2018).

settings: not given

Question: For `CCN(CC)CC(=O)OCC(=O)[C@@]1(O)CC[C@H]2[C@@H]3CCC4=CC(=O)CC[C@]4(C)[C@H]3[C@@H](O)C[C@@]21C`, which melting point is on record?
Answer: Its melting point is 162 °C.

Question: For `CN(C)CCCN1c2ccccc2S(=O)c2ccc(Cl)cc21` (stereo not given), which melting point is on record?
Answer: The melting point was 115 °C.

Question: For `OCCN1CCNCC1`, which boiling point is on record?
Answer: Its boiling point is 246 °C.

Question: Which results are given for `Cc1cc(O)ccc1Cl`?
Answer: boiling point: 235 °C; log10 vapour pressure (mmHg): -1.3; melting point: 67 °C; ready biodegradability: readily biodegradable

Question: Which melting point does the source give for `CP(=O)(c1ccccc1)c1ccccc1` here?
Answer: Its melting point is 113 °C.

Question: For `Clc1ccc(Oc2ccccc2)cc1`, which boiling point is on record?
Answer: The boiling point was 284 °C.

Question: And the log10 vapour pressure (mmHg)?
Answer: The log10 vapour pressure (mmHg) was -2.57.

Question: Which results are given for `COP(=S)(OC)SCc1nc(N)nc(N)n1`?
Answer: log10 vapour pressure (mmHg): -6.01; melting point: 165 °C; ready biodegradability: not readily biodegradable

Question: For `CCOP(=O)(N=C1SCCS1)OCC`, which melting point is on record?
Answer: Its melting point is 41 °C.

Question: For `CCCCC(C(C)=O)C(=O)OCC` (stereo not given), which boiling point is on record?
Answer: The boiling point was 222 °C.

Question: For `CCSC(=O)SCC`, which boiling point is on record?
Answer: Its boiling point is 197 °C.

Question: Which melting point does the source give for `Cc1c(NC(=O)c2cccnc2)c(=O)n(-c2ccccc2)n1C` here?
Answer: The melting point was 253 °C.

Question: Which results are given for `CC1=CCCC1`?
Answer: boiling point: 75.5 °C; melting point: -126 °C

Question: With `O=C1CC(C(=O)O)=CO1` as the compound, how does the melting point read?
Answer: The melting point was 164 °C.

Question: For `CC(C)F`, which boiling point is on record?
Answer: Its boiling point is -10 °C.

Question: For `Clc1cc(Cl)c2c(Cl)cc(Cl)cc2c1`, which log10 Koa is on record?
Answer: The log10 Koa was 8.28.

Question: With `c1cc(OCC2CO2)cc(OCC2CO2)c1` (stereo not given) as the compound, how does the melting point read?
Answer: Its melting point is 42.5 °C.

Question: Which melting point does the source give for `CC1=C(C)C(=O)C(C)=C(C)C1=O` here?
Answer: Its melting point is 112 °C.

Question: Which melting point does the source give for `CN1c2ccccc2Sc2ccc(CC(=O)O)cc21` here?
Answer: Its melting point is 144 °C.

Question: For `COP(=O)(OC)SCn1c(=O)oc2cc(Cl)cnc21`, which log10 vapour pressure (mmHg) is on record?
Answer: Its log10 vapour pressure (mmHg) is -7.44.

Question: And the melting point?
Answer: Its melting point is 89 °C.

Question: Which results are given for `CC(O)CCl` (stereo not given)?
Answer: boiling point: 127 °C; log10 vapour pressure (mmHg): 0.69

Question: What does the source list for `Cc1ccnc(C)n1`?
Answer: boiling point: 150 °C; melting point: -4 °C

Question: What does the source list for `CCCCCC(C)O` (stereo not given)?
Answer: boiling point: 159 °C; log10 vapour pressure (mmHg): 0.0899

Question: For `NS(=O)(=O)c1ccc(SCCCCO)c(F)c1`, which melting point is on record?
Answer: Its melting point is 104 °C.

Question: For `O=Cc1cccc(Cl)c1`, which boiling point is on record?
Answer: Its boiling point is 214 °C.

Question: What about the melting point of the same compound?
Answer: Its melting point is 17.5 °C.

Question: Which boiling point does the source give for `C[Si](C)(C)Cl` here?
Answer: Its boiling point is 60 °C.

Question: And the log10 vapour pressure (mmHg)?
Answer: Its log10 vapour pressure (mmHg) is 2.37.

Question: What about the melting point of the same compound?
Answer: Its melting point is -40 °C.

Question: Which boiling point does the source give for `C=CCCC(=O)O` here?
Answer: Its boiling point is 188 °C.

Question: And the melting point?
Answer: Its melting point is -22.5 °C.

Question: Which log10 Koa does the source give for `Clc1ccc(-c2c(Cl)c(Cl)c(Cl)c(Cl)c2Cl)c(Cl)c1` here?
Answer: Its log10 Koa is 10.5.

Question: Which results are given for `N#Cc1c[nH]cc1-c1cccc(Cl)c1Cl`?
Answer: log10 vapour pressure (mmHg): -7.08; melting point: 147 °C

Question: Which boiling point does the source give for `CC(C)CCC(C)(C)O` here?
Answer: The boiling point was 154 °C.

Question: For `CCn1cc(C(=O)O)c(=O)c2cc(F)c(N3CCNCC3)nc21`, which melting point is on record?
Answer: Its melting point is 222 °C.

Question: For `CCCC(=O)OC1CCCCC1`, which boiling point is on record?
Answer: The boiling point was 213 °C.

Question: For `C#CC(C)(C)NC(=O)c1ccc(C)cc1`, which log10 Koc (L/kg) is on record?
Answer: Its log10 Koc (L/kg) is 1.76.

Question: For `C=C(C)C(=O)NCO`, which melting point is on record?
Answer: Its melting point is -37 °C.

Question: Which results are given for `Nc1ccccc1`?
Answer: boiling point: 184 °C; log10 Henry constant (atm·m³/mol): -5.69; log10 Koc (L/kg): 1.6; log10 vapour pressure (mmHg): -0.31; melting point: -6 °C; ready biodegradability: readily biodegradable

Question: With `N#Cc1ccc(Br)cc1` as the compound, how does the boiling point read?
Answer: The boiling point was 236 °C.

Question: Which boiling point does the source give for `OC1CCC1` here?
Answer: The boiling point was 124 °C.

Question: For `O=C(OCC(COC(=O)c1ccccc1)OC(=O)c1ccccc1)c1ccccc1`, which melting point is on record?
Answer: Its melting point is 76 °C.

Question: For `O=C(O)c1ccc([N+](=O)[O-])cc1[N+](=O)[O-]`, which melting point is on record?
Answer: Its melting point is 182 °C.

Question: With `O=CC(Br)(Br)Br` as the compound, how does the boiling point read?
Answer: The boiling point was 174 °C.

Question: And the log10 vapour pressure (mmHg)?
Answer: Its log10 vapour pressure (mmHg) is 0.183.

Question: What about the melting point of the same compound?
Answer: The melting point was -57.5 °C.

Question: For `Cc1cccc2cccc(C)c12`, which boiling point is on record?
Answer: Its boiling point is 270 °C.

Question: What about the log10 vapour pressure (mmHg) of the same compound?
Answer: The log10 vapour pressure (mmHg) was -2.32.

Question: What about the melting point of the same compound?
Answer: Its melting point is 65 °C.

Question: Which ready biodegradability does the source give for `CC(C)(C)OOC(C)(C)c1ccc(C(C)(C)OOC(C)(C)C)cc1` here?
Answer: Its ready biodegradability is “not readily biodegradable”.

Question: For `O=C1c2ccccc2-c2ccc3c4c(ccc1c24)-c1ccccc1C3=O`, which log10 Koc (L/kg) is on record?
Answer: Its log10 Koc (L/kg) is 4.28.

Question: And the melting point?
Answer: Its melting point is 385 °C.

Question: For `c1ccc(CNc2[nH]cnc3ncnc2-3)cc1`, which log10 vapour pressure (mmHg) is on record?
Answer: The log10 vapour pressure (mmHg) was -10.7.

Question: And the melting point?
Answer: The melting point was 233 °C.

Question: For `Cc1cccc(C)c1Br`, which boiling point is on record?
Answer: The boiling point was 204 °C.

Question: What does the source list for `CC(Cl)(Cl)C(=O)O`?
Answer: boiling point: 188 °C; log10 Koc (L/kg): 0.4; log10 vapour pressure (mmHg): -0.821; melting point: -5 °C

Question: For `NCCS(=O)(=O)O`, which melting point is on record?
Answer: Its melting point is 328 °C.

Question: For `CCN(CC)C(C)CN1c2ccccc2Sc2ccccc21` (stereo not given), which melting point is on record?
Answer: The melting point was 64.5 °C.

Question: With `CCCCCCCCCCCCCCCCCC(=O)OCC(O)[C@H]1OC[C@@H](O)[C@@H]1O` (stereo not given in full) as the compound, how does the ready biodegradability read?
Answer: Its ready biodegradability is “readily biodegradable”.

Question: With `O=C(O)c1cccnc1` as the compound, how does the melting point read?
Answer: Its melting point is 237 °C.

Question: What about the ready biodegradability of the same compound?
Answer: Its ready biodegradability is “readily biodegradable”.

Question: Which melting point does the source give for `CC[C@H](Br)C(=O)O` here?
Answer: Its melting point is -4 °C.

Question: Which melting point does the source give for `C[C@]12CC[C@H]3C(=CCc4cc(O)ccc43)[C@@H]1CC[C@@H]2O` here?
Answer: The melting point was 174 °C.

Question: For `CC(C)Cc1ccccc1`, which log10 biodegradation half-life (days) is on record?
Answer: Its log10 biodegradation half-life (days) is 1.

Question: Which ready biodegradability does the source give for `CC1=CCC2C(=O)OC(=O)C2C1` (stereo not given) here?
Answer: The ready biodegradability was “not readily biodegradable”.

Question: With `ClCc1ccccc1Cl` as the compound, how does the boiling point read?
Answer: Its boiling point is 217 °C.

Question: What about the melting point of the same compound?
Answer: Its melting point is -17 °C.

Question: And the ready biodegradability?
Answer: Its ready biodegradability is “not readily biodegradable”.

Question: What does the source list for `C=C(Cl)CCl`?
Answer: boiling point: 94 °C; log10 vapour pressure (mmHg): 1.79

Question: With `CC1(C)CON(Cc2ccccc2Cl)C1=O` as the compound, how does the boiling point read?
Answer: Its boiling point is 275 °C.

Question: And the log10 Koc (L/kg)?
Answer: Its log10 Koc (L/kg) is 2.44.

Question: What about the log10 vapour pressure (mmHg) of the same compound?
Answer: The log10 vapour pressure (mmHg) was -3.84.

Question: And the melting point?
Answer: The melting point was 25 °C.

Question: With `CCOCC1CO1` (stereo not given) as the compound, how does the boiling point read?
Answer: The boiling point was 128 °C.

Question: With `Oc1ccc(Cl)cc1Sc1cc(Cl)ccc1O` as the compound, how does the melting point read?
Answer: The melting point was 174 °C.

Question: With `CCSc1ccc2c(c1)N(CCCN1CCN(C)CC1)c1ccccc1S2` as the compound, how does the melting point read?
Answer: The melting point was 63 °C.

Question: With `O=[N+]([O-])c1cc[n+]([O-])cc1` as the compound, how does the melting point read?
Answer: Its melting point is 160 °C.

Question: With `Cc1cc(C)c(NC(=O)CN(CC(=O)O)CC(=O)O)c(C)c1Br` as the compound, how does the melting point read?
Answer: The melting point was 199 °C.

same assay, conditions: fish

Question: Which results are given for `Clc1ccc(Cl)c(-c2cc(Cl)c(Cl)cc2Cl)c1`?
Answer: log10 BCF: 5.47; log10 biotransformation half-life (days): 2.46

Question: Which log10 biotransformation half-life (days) does the source give for `C=C(C)CCCCCCCCCC` here?
Answer: The log10 biotransformation half-life (days) was 0.64.

Question: Which log10 biotransformation half-life (days) does the source give for `C[Si]1(C)O[Si](C)(C)O[Si](C)(C)O[Si](C)(C)O1` here?
Answer: Its log10 biotransformation half-life (days) is 1.88.

Question: For `O=[N+]([O-])c1ccc(O)cc1`, which log10 BCF is on record?
Answer: Its log10 BCF is 0.71.

Question: Which log10 biotransformation half-life (days) does the source give for `CCCCCCCCC(C)CCC` (stereo not given) here?
Answer: The log10 biotransformation half-life (days) was 0.98.

Question: Which log10 BCF does the source give for `CNc1cccc(C)c1` here?
Answer: The log10 BCF was 0.86.

Question: And the log10 biotransformation half-life (days)?
Answer: Its log10 biotransformation half-life (days) is -0.79.

Question: Which results are given for `Cc1cc(O)ccc1Cl`?
Answer: log10 BCF: 0.93; log10 biotransformation half-life (days): -1.28

Question: For `Nc1ccccc1`, which log10 BCF is on record?
Answer: Its log10 BCF is 0.21.

Question: And the log10 biotransformation half-life (days)?
Answer: The log10 biotransformation half-life (days) was -0.78.
